Assay results: the supplement of paper PMC10307832

Tests used:
Assay in all cases: relative viability (nuclei count vs DMSO), 5 days (fraction); higher = more cells survive
LCLC-97TM1 = system: LCLC-97TM1
Method in brief: (§1)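 After 5 days of treatment, lung cancer cells in 1536-well plates were fixed and stained in a single step (final 0.05% Triton X-100, 1% formaldehyde, 1 ug/ml Hoechst) and their nuclei counted on 4× images. Treatment had been applied by pin tool the day after seeding as one drug alone or as a fixed anchor-drug dose with five library-drug doses (not always all listed) in √10 steps. Relative viability is the nuclei count of treated wells divided by that of vehicle wells, and values are medians of duplicate plates.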

ChaGo-K-1 = system: ChaGo-K-1
Method in brief: as §1

PC-14 = system: PC-14
Method in brief: as §1

201T = system: 201T
Method in brief: as §1

NCI-H647 = system: NCI-H647
Method in brief: as §1

HCC-827 = system: HCC-827
Method in brief: as §1

RERF-LC-KJ = system: RERF-LC-KJ
Method in brief: as §1

H3255 = system: H3255
Method in brief: as §1

NCI-H661 = system: NCI-H661
Method in brief: as §1

NCI-H1666 = system: NCI-H1666
Method in brief: as §1

NCI-H650 = system: NCI-H650
Method in brief: as §1

With `COc1cc2nccc(Oc3ccc(NC(=O)Nc4cc(C)on4)c(Cl)c3)c2cc1OC` [Tivozanib] + CC(=O)Nc1cccc(-n2c(=O)n(C3CC3)c(=O)c3c(Nc4ccc(I)cc4F)n(C)c(=O)c(C)c32)c1 [Trametinib] (partner 0.02 µM) the relative viability (LCLC-97TM1; first compound 0.005 µM) was 0.15, the relative viability (LCLC-97TM1; first compound 0.01581 µM) was 0.194 and the relative viability (LCLC-97TM1; first compound 0.05 µM) was 0.206. The relative viability (LCLC-97TM1; first compound 0.1581 µM) was 0.165, the relative viability (LCLC-97TM1; first compound 0.5 µM) was 0.273 and the relative viability (ChaGo-K-1; first compound 0.005 µM) was 0.853. The relative viability (ChaGo-K-1; first compound 0.01581 µM) was 0.89, the relative viability (ChaGo-K-1; first compound 0.05 µM) was 0.875 and the relative viability (ChaGo-K-1; first compound 0.1581 µM) was 0.859. The relative viability (ChaGo-K-1; first compound 0.5 µM) was 0.868, the relative viability (PC-14; first compound 0.005 µM) was 0.654 and the relative viability (PC-14; first compound 0.01581 µM) was 0.766. The relative viability (PC-14; first compound 0.05 µM) was 0.844, the relative viability (PC-14; first compound 0.1581 µM) was 0.84 and the relative viability (PC-14; first compound 0.5 µM) was 0.751. It also gave a relative viability (201T; first compound 0.005 µM) of 0.691, a relative viability (201T; first compound 0.01581 µM) of 0.759 and a relative viability (201T; first compound 0.05 µM) of 0.681. It also gave a relative viability (201T; first compound 0.1581 µM) of 0.717, a relative viability (201T; first compound 0.5 µM) of 0.784 and a relative viability (NCI-H647; first compound 0.005 µM) of 0.521. The relative viability (NCI-H647; first compound 0.01581 µM) was 0.461, the relative viability (NCI-H647; first compound 0.05 µM) was 0.483 and the relative viability (NCI-H647; first compound 0.1581 µM) was 0.408. It also gave a relative viability (NCI-H647; first compound 0.5 µM) of 0.49, a relative viability (HCC-827; first compound 0.005 µM) of 0.52 and a relative viability (HCC-827; first compound 0.01581 µM) of 0.543. The relative viability (HCC-827; first compound 0.05 µM) was 0.571, the relative viability (HCC-827; first compound 0.1581 µM) was 0.527 and the relative viability (HCC-827; first compound 0.5 µM) was 0.533. It also gave a relative viability (RERF-LC-KJ; first compound 0.005 µM) of 0.758, a relative viability (RERF-LC-KJ; first compound 0.01581 µM) of 0.989 and a relative viability (RERF-LC-KJ; first compound 0.05 µM) of 0.805. For the same compound, the relative viability (RERF-LC-KJ; first compound 0.1581 µM) was 0.859, the relative viability (RERF-LC-KJ; first compound 0.5 µM) was 0.805 and the relative viability (H3255; first compound 0.005 µM) was 0.531. The relative viability (H3255; first compound 0.01581 µM) was 0.61, the relative viability (H3255; first compound 0.05 µM) was 0.659 and the relative viability (H3255; first compound 0.1581 µM) was 0.608. It also gave a relative viability (H3255; first compound 0.5 µM) of 0.59, a relative viability (NCI-H661; first compound 0.005 µM) of 0.588 and a relative viability (NCI-H661; first compound 0.01581 µM) of 0.562. It also gave a relative viability (NCI-H661; first compound 0.05 µM) of 0.618, a relative viability (NCI-H661; first compound 0.1581 µM) of 0.522 and a relative viability (NCI-H661; first compound 0.5 µM) of 0.641. The relative viability (NCI-H1666; first compound 0.005 µM) was 0.839, the relative viability (NCI-H1666; first compound 0.01581 µM) was 0.78 and the relative viability (NCI-H1666; first compound 0.05 µM) was 0.977. The relative viability (NCI-H1666; first compound 0.1581 µM) was 0.922, the relative viability (NCI-H1666; first compound 0.5 µM) was 0.862 and the relative viability (NCI-H650; first compound 0.005 µM) was 0.942. The relative viability (NCI-H650; first compound 0.01581 µM) was 1.05, the relative viability (NCI-H650; first compound 0.05 µM) was 1.05 and the relative viability (NCI-H650; first compound 0.1581 µM) was 0.97. The relative viability (NCI-H650; first compound 0.5 µM) was 0.909.
